From patent publication US20160175214A1, “ANHYDROUS COSMETIC COMPOSITION FOR TOPICAL APPLICATION” (The Procter & Gamble Company, priority 2014, published 2016)

Assay: Solubility in hydrophobic anhydrous, glycol free, antiperspirant free stick formulations
Assay type: physicochemical
Text: Additional considerations regarding exemplary Vitamin B5 derivatives may apply. For example, in order to deliver Vitamin B5 (or a derivative thereof) from an anhydrous, hydrophobic, glycol free and antiperspirant free cosmetic stick, a corresponding matrix soluble form or derivative of Vitamin B5 must be used to achieve the desired benefits of hair softening, shave bump reduction and wound healing from shave cut damage. For example, if an incompatible or insoluble form of Vitamin B5 is used, such as panthenol, this will not form a homogenous one phase solution when the ingredients are blended and heated together from the melt.
As such, the Vitamin B5 derivative utilized should be soluble in the anhydrous, hydrophobic, glycol free and antiperspirant free matrix.

- Solublility in hydrophobic Anhydrous, glycol free, antiperspirant free Stick formulations: Soluble
SMILES: CCOCC(C)(C)C(O)C(=O)NCCCO (stereo not shown) [Panthenyl Ethyl Ether]
